Results as given in PubChem BioAssay (NCI).
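Five concentrations, 48 hours, 96-well plates. GI50 = concentration required for 50% inhibition of growth. Definition used: TGI = concentration required for complete inhibition of growth.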 Where a SMILES comes first, the peptide text is derived from it. [ ]: non-standard residue; d: D form. The star is where a group is joined. X28 = COC1=CC(=O)N(C(=O)[C@@H](O*)C(C)C)[C@H]1Cc1ccccc1; Bn2Val = CC(C)[C@@H](C(=O)*)N(Cc1ccccc1)Cc1ccccc1; NMeV = CN[C@H](C(=O)O)C(C)C; dNMeA = CN[C@H](C)C(=O)O

How the values were obtained:
Assay in all cases: NCI-60 cell line screen, 48 h
A549 NSCLC = system: A549 NSCLC
BT-549 breast = system: BT-549 breast
CCRF-CEM leukemia = system: CCRF-CEM leukemia
COLO 205 colon = system: COLO 205 colon
EKVX NSCLC = system: EKVX NSCLC
NCI-H23 lung = system: NCI-H23 lung
SW-620 colon = system: SW-620 colon
MALME-3M melanoma = system: MALME-3M melanoma
MCF7 breast = system: MCF7 breast
NCI-H226 lung = system: NCI-H226 lung

Row | Structure (SMILES) | TGI (A549 NSCLC) | TGI (BT-549 breast) | TGI (CCRF-CEM leukemia) | TGI (COLO 205 colon) | TGI (EKVX NSCLC) | TGI (NCI-H23 lung) | TGI (SW-620 colon) | TGI (MALME-3M melanoma) | TGI (MCF7 breast) | TGI (NCI-H226 lung) | GI50 (A549 NSCLC) | GI50 (EKVX NSCLC) | GI50 (MCF7 breast) | GI50 (NCI-H226 lung) | GI50 (NCI-H23 lung) | GI50 (SW-620 colon) | GI50 (BT-549 breast) | GI50 (MALME-3M melanoma)
1 | CCOC(=O)CCC(NC(=O)c1ccc(Nc2nc3cc(C(F)(F)F)ccc3nc2C(=O)OCC)cc1)C(=O)OCC (configuration not stated) | 27.4 µM | 29.8 µM | > 100 µM | > 100 µM | 38 µM | 39.9 µM | 81.6 µM |  |  |  |  |  |  |  |  |  |  | 
2 | COC(=O)CCCC1(CCCC(=O)OC)CCCCCCCCC(CCCC(=O)OC)(CCCC(=O)OC)C(=O)C1=O | 29.9 µM |  |  | > 100 µM | > 100 µM | 47.9 µM | > 100 µM | 60.1 µM | > 100 µM | > 100 µM |  |  |  |  |  |  |  | 
3 | N#C/C=c1/c2ccccc2n2nc3ccccc3c12 | > 100 µM | > 100 µM | > 100 µM | 85.3 µM | > 100 µM | 59.2 µM | > 100 µM | > 100 µM | > 100 µM |  |  |  |  |  |  |  |  | 
4 | C=CCNc1nc(O)c(/C=C2\C=Nc3ncccc32)s1 | 19.4 µM |  |  |  | > 100 µM | 6.28 µM | 9.25 µM |  | > 100 µM | 21.6 µM | 7.08 µM | 3.4 µM | 2.2 µM | 1.99 µM | 1.93 µM | 2.13 µM |  | 
5 | CC(=O)NNC(=S)/N=C\c1c(O)c2ccccc2oc1=O | > 100 µM | > 100 µM | > 100 µM | > 100 µM |  | > 100 µM | > 100 µM | > 100 µM | > 100 µM | > 100 µM |  |  |  |  |  |  |  | 
6 | Nc1nc2c(c(-c3ccccc3Cl)n1)COC/C2=C\c1ccccc1Cl |  | 33.4 µM | 32.8 µM | 30.1 µM | 35.2 µM | 34.8 µM | 31.8 µM |  | 27.7 µM | 39.2 µM |  |  |  |  |  |  |  | 
7 | COC1=CC(=O)N(C(=O)[C@@H](OC(=O)[C@@H](C)N(C)C(=O)[C@@H]2CCCN2C(=O)[C@H](C(C)C)N(C)C(=O)[C@@H](NC(=O)[C@H](C(C)C)N(Cc2ccccc2)Cc2ccccc2)C(C)C)C(C)C)[C@H]1Cc1ccccc1 (Bn2Val-V[NMeV]P[dNMeA]-X28) | > 100 µM | > 100 µM | > 100 µM | > 100 µM | > 100 µM |  | > 100 µM | > 100 µM | > 100 µM | > 100 µM |  |  |  |  |  |  |  | 
8 | CC(C)NCC(O)c1ccc(O)c2ncccc12 (configuration not stated) | > 100 µM | > 100 µM |  | 36.4 µM | > 100 µM | 78.7 µM | > 100 µM |  | > 100 µM | > 100 µM |  |  |  |  |  |  |  | 
9 | CCCc1n[nH]c(=O)n1N1C(=O)C=CC1=O | > 100 µM | > 100 µM | > 100 µM | > 100 µM | > 100 µM | > 100 µM |  | > 100 µM | > 100 µM |  |  |  |  |  |  |  |  | 
10 | Clc1ccc2nc3n[nH]c(Cl)c3nc2c1 | > 100 µM | > 100 µM |  | > 100 µM | 85.4 µM | > 100 µM | > 100 µM |  | > 100 µM |  |  |  |  |  |  |  |  | 
11 | N#C/C(=C/n1c(=S)[nH]c2ccccc21)C(N)=O | > 100 µM |  | > 100 µM | > 100 µM | > 100 µM | > 100 µM | > 100 µM | > 100 µM | > 100 µM | > 100 µM |  |  |  |  |  |  |  | 
12 | O=C(O)CN1CCCC(Cc2c[nH]c3ccccc23)C1 (configuration not stated) | > 100 µM | > 100 µM |  | > 100 µM | > 100 µM | > 100 µM | > 100 µM | > 100 µM |  | > 100 µM |  |  |  |  |  |  |  | 
13 | COc1ccc(OC)c(NC2=NCCO2)c1 | > 100 µM |  | > 100 µM | > 100 µM | > 100 µM | > 100 µM | 28.2 µM | > 100 µM | > 100 µM | > 100 µM |  |  |  |  |  |  |  | 
14 | C/C=C/c1cc2c(c(=O)o1)C(=O)[C@@H](O)[C@H](C)O2 | 34.3 µM |  | 53.9 µM | 25.7 µM | 31 µM | 32.4 µM | 22.9 µM | 32.5 µM | 14.8 µM | 38.5 µM |  |  |  |  |  |  |  | 
15 | O=C(NC12CC3CC(CC(C3)C1)C2)C(=O)c1c[nH]c2ccc(Br)cc12 | 42.4 µM |  | > 100 µM | 45.1 µM | > 100 µM | > 100 µM | > 100 µM | 68.6 µM |  | 41.8 µM |  |  |  |  |  |  |  | 
16 | Cc1nc2ccccc2c(=O)n1NC(=O)c1ccccc1[N+](=O)[O-] | > 100 µM | > 100 µM | > 100 µM |  | > 100 µM | > 100 µM | > 100 µM | > 100 µM | > 100 µM | > 100 µM |  |  |  |  |  |  |  | 
17 | N/C(=N\NC(=O)c1nc2ccccc2s1)c1ccccn1 | > 52.7 µM | > 100 µM | > 45.6 µM | 27.6 µM | > 63.6 µM | 52.6 µM | > 100 µM | > 100 µM | > 63.7 µM |  |  |  |  |  |  |  |  | 
18 | Nc1ncnc2c1ncn2CCCC(c1ccccc1)P(=O)(O)O (configuration not stated) | > 100 µM |  |  | > 100 µM | > 100 µM | > 100 µM | > 100 µM | > 100 µM |  | > 100 µM |  |  |  |  |  |  |  | 
19 | CCCCCCCCCCCCCCCCNCC(O)CN (configuration not stated) | 10.2 µM |  | 3.72 µM | 3.81 µM | 44.6 µM | 16.8 µM | 3.17 µM | 30.2 µM | 6.47 µM | 25.6 µM |  |  |  |  |  |  |  | 
20 | Cc1ccc(/C(O)=C/c2nc3cccnc3[nH]c2=O)cc1 | > 100 µM | > 100 µM | > 100 µM | > 100 µM | > 100 µM | > 100 µM |  | > 100 µM | > 100 µM | > 100 µM |  |  |  |  |  |  |  | 
21 | C[C@]12C(=O)C=CCC1=CC[C@@H]1[C@@H]2[C@H]2CC3(O)C(=O)O[C@@]4(C)[C@H]5C[C@@]6(C)[C@@H]7[C@@]2(O)[C@]1(OC[C@H]6C(=O)O5)O[C@]734 (some centres not stated) | > 100 µM |  | > 100 µM | > 100 µM | > 100 µM | 54.6 µM | > 100 µM | > 100 µM | > 100 µM |  |  |  |  |  |  |  |  | 
22 | Cn1cc(-c2nc(-c3c[nH]c4ccncc34)cs2)c2ccccc21 | 3.46 µM | 35.5 µM |  |  | 3.36 µM |  |  | 3.23 µM |  |  | 1.83 µM | 1.64 µM |  |  |  |  | 9 µM | 1.69 µM
